Test results reported in patent EP4321023A1, “MOSQUITO REPELLENT COMPOSITION COMPRISING YARROW ESSENTIAL OIL” (National Hellenic Research Foundation, priority 2022, dated 2024).

Tests used:
EpiOcular™ tissues = type: cell-based; conditions: human, 30 min, 200 µg EO/cm^2
Procedure: The EpiOcular™ eye irritation test (Stern, Klausner et al., 1998) (OCL-200-EIT) purchased by MatTek was used in this study to evaluate the eye irritation potential of nano-emulsion 1 of Example 2 (Yarrow essential oil (2% Achillea millefolium essential oil)) or of nano-emulsion 2 of Example 2 (mixture of 1% Yarrow essential oil (Achillea millefolium essential oil) with 1% Lavandin oil (Hybrid Lavandula intermedia essential oil) [1:1 w/w]).
Fresh tissues are equilibrated at RT for 15 min, then, transferred onto 6-well plates and pre-incubated at standard culture conditions for 1 hour in assay medium, which is DMEM based medium (MatTek), then, replaced, and tissues are incubated overnight under standard culture conditions. The tissues are prehydrated with Ca^++Mg^++Free-DPBS and incubated at standard culture conditions for 30±2 min. Each nano-emulsion (dose: 200 µg EO/cm^2) and control samples are applied topically on the EpiOcular™ tissues. The tissues are incubated for 30±2 min followed by removal of the nano-emulsions by extensive rinsing of the tissues with Ca^++Mg^++Free-DPBS. […] Finally, the MTT assay is performed, and the relative tissue viability is calculated for each tissue as % of the mean viability of the negative control tissues. […]

Epiderm™ tissues = test: EpiDerm skin irritation test (EPI-200-SIT), MTT tissue viability; type: cell-based, human
Excerpt: The EpiDerm™ skin irritation test kit (Schafer-Korting, Bock et al., 2008) (EPI-200-SIT) was purchased by MatTek (https://www.mattek.com/) and used in this study. The value of this method lies in that it provides in vivo prediction for classification testing of the nano-emulsions as irritant or non-irritant, based on in vitro results. According to the EU and GHS classification (R38/ Category 2 or no label), an irritant is predicted if the mean relative tissue viability of individual tissues exposed to the test substance is reduced below 50% of the mean viability of the negative controls run in parallel.
The experimental procedure for the skin irritation test is the following. Fresh tissues are transferred onto 6-well plates and pre-incubated under standard culture conditions for 1 hour in the assay medium (DMEM based medium, MatTek). Then, the assay medium is replaced by fresh assay medium, and tissues are incubated overnight. […] Then, the blue formazan salt formed by cellular mitochondria is extracted with 2.0 ml/tissue of isopropanol (extractant solution, part # MTT-100-EXT) and the optical density of the extracted formazan is determined at 570 nm using a spectrophotometer. Relative tissue viability is calculated for each tissue as % of the mean viability of the negative control tissues. […]

3D human skin tissues = test: Histological analysis (eosin and hematoxylin) after 48 h topical application; type: cell-based; conditions: dose 200 µg EO/cm^2, 48 hours; Figure 8
Procedure: Following topical application of nano-emulsion 1 of Example 2 (Yarrow essential oil (2% Achillea millefolium essential oil)) or of nano-emulsion 2 of Example 2 (mixture of 1% Yarrow essential oil (Achillea millefolium essential oil) with 1% Lavandin oil (Hybrid Lavandula intermedia essential oil) [1:1 w/w]) on 3D human skin tissues, for 48 hours, skin specimens are collected and further processed for: [1] histological analysis (Furio, Pampalakis et al., 2015) and [2] molecular analysis.
First, 3D-reconstructed human skin tissue culture media is replaced with fresh, pre-warmed media. Under sterile conditions, tissues are exposed topically to each test nano-emulsion (dose, 200 µg EO/cm^2). 5% SDS a widely known skin irritant was used as positive control. […] Alternatively, total RNA was extracted from 3D human skin tissues (Macherey-Nagel) to quantify relative expression of tight junction proteins with the aim to test for potential alterations in expression levels (Figure 9 ). Then, synthesized cDNAs (SuperScript™ First-Strand Synthesis System for RT-PCR, Invitrogen) were used as template for RT-qPCR (SYBR™ Select, Applied Biosystems) to quantify the relative expression levels of tight junction proteins encoding genes using the gene-specific primers enlisted in Table 8. […]

`COC(C)=O` [PC, methyl acetate] was tested, and the “Mean of viabilities, %” value (EpiOcular™ tissues) was 13.46%, the Classification (Epiderm™ tissues; skin irritation, prediction model developed by MatTek) was “I, qualified (I, irritant)” and the “Mean of viabilities, %” value (Epiderm™ tissues; skin, dose 200 µg EO/cm^2, 60±1 min exposure, % of mean viability of negative control, 2 tissues) was 2.828%. For the same compound, the “skin morphology by eosin and hematoxylin staining” value (3D human skin tissues) was “high degree of damage”.
